Test results published in US20020143059A1, “Skin care product containing retinoids, retinoid booster and phytoestrogens in a dual compartment package” (priority 2000, published 2002).
Values belong to the compound of their own block, whether it stands above or below them.

Tests used:
[1] = system: retinoic acid oxidation (cytochrome P450 systems); experiment: Assay for NADPH Dependent Retinoic Acid Oxidation, liver microsomes; type: biochemical, rat; conditions: for % Inhibition Retinoic Acid (10 μM): 10 μM compound; for % Inhibition Retinoic Acid (100 μM): 100 μM compound
ARAT = experiment: Assay for ARAT activity, RPE microsomes; type: biochemical, bovine; conditions: 100 μm compound
[2] = Retinol stability in the presence of boosters (OD 360 nm); type: physicochemical; conditions: booster approximately 0.1%, 60 hours at room temperature in the dark, approx. 50% aqueous ethanol
Protocol: Retinol (50% in tween 80) was dissolved in approximately 50% aqueous ethanol to provide a solution giving an OD at 360 nm of approximately 0.6 when measured in a 200 μl volume in a 96 well plate using a standard 96 well spectrophotometer.
Booster molecules were added at approximately 0.1% concentration and the OD 360 measured as above immediately and after 60 hours at room temperature in the dark. A correction was applied to the OD after 60 hours (divide by 0.85) to account for increased concentration of the retinol due to evaporation of solvent from the plate.

TGase I = experiment: Transglutaminase (TGase I ELISA) assay in cultured keratinocytes; type: cell-based; conditions: booster in combination with a constant retinol concentration of 10^−7M; read-out: Overall TG (IC 50)
LRAT = target: T1, LRAT (Bos taurus, UniProt Q9BGL2); experiment: Assay for LRAT activity, RPE microsomes; type: biochemical, bovine; conditions: 100 μm compound
T1 construct: followed by approximately 15 μg of RPE microsomal protein; tissue W. L. Lawson Co., Lincoln, Nebr; host or cells: bovine retinal pigment epithelium microsomes
T1 sequence (Q9BGL2 1-230): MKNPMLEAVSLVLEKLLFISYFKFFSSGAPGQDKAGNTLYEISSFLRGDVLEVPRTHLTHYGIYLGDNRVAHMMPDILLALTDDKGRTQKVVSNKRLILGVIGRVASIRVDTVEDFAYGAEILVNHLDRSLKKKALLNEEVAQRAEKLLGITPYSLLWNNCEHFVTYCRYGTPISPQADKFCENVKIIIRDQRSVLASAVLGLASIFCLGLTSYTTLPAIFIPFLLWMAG

CRABP-II = CRABP-II expression in adult fibroblasts (dot blot); type: cell-based, human; conditions: for CRABP-II production: 48 hours; for % as Control: control as 100%

Compound: CCN(CC)CC(=O)Nc1c(C)cccc1C [Lidocaine, reference compound]
% Inhibition ARAT (100 μm) (ARAT): 12%

Compound: CCCCC/C=C\C/C=C\CCCCCCCC(=O)NCCCN(C)C [Linoleamidopropyl Dimethylamine]
% Inhibition ARAT (100 μm) (ARAT): 69% +/− 18

Compound: CCCCC/C=C\C/C=C\CCCCCCCC(=O)NCCO [Linoleoyl Monoethanolamide]
IC50 (TGase I): 16.1 µM

Compound: CC(C)(O)CCCC1=CCC(C=O)CC1 (stereo not shown) [Lyral]
% Inhibition ARAT (100 μm) (ARAT): 76%

Compound: CCCCC/C=C/C/C=C/CCCCCCCC(=O)NC(C)c1ccccc1 (stereo not shown) [Melinamide, reference compound]
% Inhibition ARAT (100 μm) (ARAT): 64% +/− 15

Compound: CCCCCCCCCCCCCC(=O)N(C)CC(=O)O [Myristoyl Sarcosine]
% Inhibition ARAT (100 μm) (ARAT): 41% +/− 14

Compound: O=C1C[C@@H](c2ccc(O)cc2)Oc2cc(O)cc(O)c21 [Naringenin]
% Inhibition ARAT (100 μm) (ARAT): 33%

Compound: CC1=C(/C=C/C(C)=C/C=C/C(C)=C/C(=O)O)C(C)(C)CCC1 [Retinoic acid, reference compound]
CRABP-II production (CRABP-II; 1 nM retinoid alone): 0.97+/−0.47 | % as Control (CRABP-II; 1 nM retinoid alone): 335+/−162% | CRABP-II production (CRABP-II; 10 nM retinoid alone): 1.24+/−0.29 | % as Control (CRABP-II; 10 nM retinoid alone): 428+/−101%

Compound: CC(=O)OC/C=C(C)/C=C/C=C(C)/C=C/C1=C(C)CCCC1(C)C [Retinyl Acetate]
CRABP-II production (CRABP-II; 100 nM retinoid alone): 0.60+/−0.32 | % as Control (CRABP-II; 100 nM retinoid alone): 209+/−118%

Compound: CCCCC/C=C\C/C=C\CCCCCCCC(=O)OC/C=C(C)/C=C/C=C(C)/C=C/C1=C(C)CCCC1(C)C [Retinyl Linoleate]
CRABP-II production (CRABP-II; 100 nM retinoid alone): 0.52+/−0.3 | % as Control (CRABP-II; 100 nM retinoid alone): 181+/−110%

Compound: CCCCCCCCCCCCCCCC(=O)OC/C=C(C)/C=C/C=C(C)/C=C/C1=C(C)CCCC1(C)C [Retinyl Palmitate]
CRABP-II production (CRABP-II; 100 nM retinoid alone): 1.26+/−0.51 | % as Control (CRABP-II; 100 nM retinoid alone): 434+/−177%

Compound: CC(=O)c1cc2c(cc1C)C(C)(C)C(C)CC2(C)C (stereo not shown) [Tonalid]
% Inhibition ARAT (100 μm) (ARAT): 50%

Compound: CC(=O)c1cc2c(cc1C)C(C)(C)[C@H](C)[C@H]2C(C)C [Traseolide]
% Inhibition ARAT (100 μm) (ARAT): 41%

Compound: COCAMIDE DEA
FOLD INCREASE IN RATE OF RETINOL LOSS [2]: 1.9 fold

Compound: Castor Oil MEA
IC50 (TGase I): 32.5 µM

Compound: Coco Hydroxyethylimidazoline
% Inhibition LRAT (100 μm) (LRAT): 68%

Compound: Coco Trimethylammonium Cl-
% Inhibition ARAT (100 μm) (ARAT): 27%

Compound: Hydroxyquinoline (Carbostyril)
IC50 (TGase I): 364 µM

Further lines, with some results ahead:

% Inhibition Retinoic Acid (10 μM) [1]: 84% | % Inhibition Retinoic Acid (100 μM) [1]: 84%
Compound: CC(=O)N1CCN(c2ccc(OCC3COC(Cn4ccnc4)(c4ccc(Cl)cc4Cl)O3)cc2)CC1 (stereo not shown) [Ketoconazole]

FOLD INCREASE IN RATE OF RETINOL LOSS [2]: 2.6 fold
Compound: CCCCCCCCCCCC(=O)N(C)CC(=O)O [Lauroyl Sarcosine]
% Inhibition ARAT (100 μm) (ARAT): 20%

IC50 (TGase I): 0.467 µM
Compound: CCCCCCCCCCCC1=NCCN1CCO [Lauryl Hydroxyethylimidazoline]

% Inhibition Retinoic Acid (10 μM) [1]: 74% | % Inhibition Retinoic Acid (100 μM) [1]: 86%
Compound: Clc1ccc(COC(Cn2ccnc2)c2ccc(Cl)cc2Cl)c(Cl)c1 (stereo not shown) [Miconazole]

IC50 (TGase I): 28 µM
Compound: CCCCCCCC/C=C\CCCCCCCC[N+](C)(C)CC(=O)[O-] [Oleyl Betaine]
% Inhibition ARAT (100 μm) (ARAT): 47%

IC50 (TGase I): 30.2 µM
Compound: CCCCCCCC/C=C\CCCCCCCC1=NCCN1CCO [Oleyl Hydroxyethylimidazoline]

% Inhibition LRAT (100 μm) (LRAT): 37%
Compound: CC(=O)/C=C/C=C(\C)CCC=C(C)C [Pseudoionone]

% Inhibition Retinoic Acid (10 μM) [1]: 40% | % Inhibition Retinoic Acid (100 μM) [1]: 74%
Compound: O=c1c(O)c(-c2ccc(O)c(O)c2)oc2cc(O)cc(O)c12 [Quercetin]

% Inhibition LRAT (100 μm) (LRAT): 12%
Compound: CC(=O)C1(C)C2CC3C(C2)C31C (stereo not shown) [Santalone]
% Inhibition ARAT (100 μm) (ARAT): 23%

% Inhibition LRAT (100 μm) (LRAT): 33%
Compound: CCCC(O)CCC1C(C)CCCC1(C)C (stereo not shown) [Timberol]

% Inhibition LRAT (100 μm) (LRAT): 34%
Compound: Cocoyl Monoethanolamide
% Inhibition ARAT (100 μm) (ARAT): 13%

FOLD INCREASE IN RATE OF RETINOL LOSS [2]: 3.7 fold
Compound: DAMASCONE

% Inhibition LRAT (100 μm) (LRAT): 58% +/− 2
Compound: Glycerol-PCA-Oleate
% Inhibition ARAT (100 μm) (ARAT): 41% +/− 6

% Inhibition LRAT (100 μm) (LRAT): 45%
Compound: Isobutyl Ionone
% Inhibition ARAT (100 μm) (ARAT): 8%

% Inhibition LRAT (100 μm) (LRAT): 43%
Compound: Santanol
% Inhibition ARAT (100 μm) (ARAT): 15%
